# What was measured:
# cocklebur = test: Test B pre/postemergence cocklebur; format: in vivo, Xanthium strumarium
# Outline: (§1)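 Herbicidal effect was estimated by eye on a ten-point control scale after plants spent twelve to sixteen days in a greenhouse following soil or foliar treatment. Foliar sprays targeted plants at one to four leaves; all doses were formulated in a non-phytotoxic solvent with surfactant.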
# wheat = test: Test B pre/postemergence wheat; format: in vivo, Triticum aestivum
# Outline: as §1
# pigweed = test: Test B pre/postemergence pigweed; format: in vivo, Amaranthus retroflexus
# Outline: as §1
# rape = test: Test B pre/postemergence rape; format: in vivo, Brassica napus
# Outline: as §1
# sugar beet = test: Test B pre/postemergence sugar beet; format: in vivo, Beta vulgaris
# Outline: as §1
# giant foxtail = test: Test B pre/postemergence giant foxtail; format: in vivo, Setaria faberii
# Outline: as §1
# morningglory = test: Test B pre/postemergence morningglory; format: in vivo, Ipomoea hederacea
# Outline: as §1
# wild oat = test: Test B pre/postemergence wild oat; format: in vivo, Avena fatua
# Outline: as §1
# velvetleaf = test: Test B pre/postemergence velvetleaf; format: in vivo, Abutilon theophrasti
# Outline: as §1
# crabgrass = test: Test B pre/postemergence crabgrass; format: in vivo, Digitaria sanguinalis
# Outline: as §1
# purple nutsedge = test: Test B pre/postemergence purple nutsedge; format: in vivo, Cyperus rotundus
# Outline: as §1
# soybean = test: Test B pre/postemergence soybean; format: in vivo, Glycine max
# Outline: as §1
# corn = test: Test B pre/postemergence corn; format: in vivo, Zea mays
# Outline: as §1
# duck salad = test: Test B flood test duck salad; format: in vivo, Heteranthera limosa
# Outline: (§2)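 Flood test on plants grown to the 2-leaf stage; treated plants kept in greenhouse twelve to sixteen days, then visually rated against controls on a 0 (no effect) to 10 (complete control) scale.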
# rice = test: Test B flood test rice; format: in vivo, Oryza sativa
# Outline: as §2
# bamyardgrass = test: Test B flood test barnyardgrass; format: in vivo, Echinochloa crus-galli
# Outline: as §2
# [1] = Postemergence, Rate 250 g/ha, scale 0 to 10, 0 no effect, 10 complete control
# [2] = Postemergence, Rate 1000 g/ha, scale 0 to 10 (0 no effect, 10 complete control)
# [3] = Preemergence, Rate 125 g/ha, scale 0 to 10 (0 no effect, 10 complete control)
# [4] = Preemergence, Rate 250 g/ha, scale of 0 to 10 where 0 is no effect and 10 is complete control
# [5] = Preemergence, Rate 500 g/ha, scale 0 (no effect) to 10 (complete control)
# [6] = Rate 125 g/ha, Postemergence, scale 0 to 10, 0 no effect, 10 complete control
# [7] = Rate 500 g/ha, Postemergence, 0 to 10 scale (0 no effect, 10 complete control)
# [8] = Rate 1000 g/ha, Preemergence, scale 0 to 10 (0 no effect, 10 complete control)
# [9] = Rate 125 g/ha, Postemergence section (flood test species), scale 0 to 10, 0 no effect, 10 complete control
# [10] = Rate 500 g/ha, Postemergence section of Table B, 0 to 10 scale (0 no effect, 10 complete control)
# [11] = flood test, listed under Postemergence, Rate 250 g/ha, scale 0 to 10, 0 no effect, 10 complete control
smiles,measurement,setting,value
CCN(CC)C(=O)n1oc(=O)n(-c2ccc(OC)cc2)c1=O [Compound 1],Cocklebur plant response rating,cocklebur; [1],0
same,Cocklebur plant response rating,cocklebur; [2],0
same,"Plant response rating, Cocklebur",cocklebur; [3],0
same,"Plant response rating, Cocklebur",cocklebur; [4],0
same,Cocklebur plant response rating,cocklebur; [5],0
same,Cocklebur plant response rating,cocklebur; [6],0
same,Cocklebur plant response rating,cocklebur; [7],0
same,Wheat plant response rating,wheat; [1],0
same,Wheat plant response rating,wheat; [2],0
same,"Plant response rating, Wheat",wheat; [3],0
same,"Plant response rating, Wheat",wheat; [4],0
same,Wheat plant response rating,wheat; [5],0
same,Wheat plant response rating,wheat; [6],0
same,"Plant response rating, Wheat",wheat; [8],0
same,Redroot pigweed plant response rating,pigweed; [1],4
same,Redroot pigweed plant response rating,pigweed; [2],9
same,"Plant response rating, Redroot pigweed",pigweed; [3],0
same,"Plant response rating, Redroot pigweed",pigweed; [4],0
same,Redroot pigweed plant response rating,pigweed; [5],2
same,Redroot pigweed plant response rating,pigweed; [6],2
same,Redroot pigweed plant response rating,pigweed; [7],8
same,"Plant response rating, Redroot pigweed",pigweed; [8],2
same,Rape plant response rating,rape; [1],0
same,Rape plant response rating,rape; [2],4
same,"Plant response rating, Rape",rape; [3],0
same,"Plant response rating, Rape",rape; [4],0
same,Rape plant response rating,rape; [5],0
same,Rape plant response rating,rape; [6],0
same,Rape plant response rating,rape; [7],2
same,"Plant response rating, Rape",rape; [8],0
same,Sugarbeets plant response rating,sugar beet; [1],0
same,Sugarbeets plant response rating,sugar beet; [2],5
same,"Plant response rating, Sugarbeets",sugar beet; [3],0
same,"Plant response rating, Sugarbeets",sugar beet; [4],0
same,Sugarbeets plant response rating,sugar beet; [5],0
same,Sugarbeets plant response rating,sugar beet; [6],0
same,"Plant response rating, Sugarbeets",sugar beet; [8],0
same,Giant foxtail plant response rating,giant foxtail; [1],2
same,Giant foxtail plant response rating,giant foxtail; [2],8
same,"Plant response rating, Giant foxtail",giant foxtail; [3],7
same,"Plant response rating, Giant foxtail",giant foxtail; [4],8
same,Giant foxtail plant response rating,giant foxtail; [5],9
same,Giant foxtail plant response rating,giant foxtail; [6],0
same,Giant foxtail plant response rating,giant foxtail; [7],8
same,"Plant response rating, Giant foxtail",giant foxtail; [8],9
same,Morningglory plant response rating,morningglory; [1],0
same,Morningglory plant response rating,morningglory; [2],0
same,"Plant response rating, Morningglory",morningglory; [3],0
same,"Plant response rating, Morningglory",morningglory; [4],0
same,Morningglory plant response rating,morningglory; [5],0
same,Morningglory plant response rating,morningglory; [6],0
same,Morningglory plant response rating,morningglory; [7],0
same,"Plant response rating, Morningglory",morningglory; [8],0
same,Wild oats plant response rating,wild oat; [1],0
same,Wild oats plant response rating,wild oat; [2],0
same,"Plant response rating, Wild oats",wild oat; [3],0
same,"Plant response rating, Wild oats",wild oat; [4],0
same,Wild oats plant response rating,wild oat; [5],0
same,Wild oats plant response rating,wild oat; [6],0
same,"Plant response rating, Wild oats",wild oat; [8],2
same,Velvetleaf plant response rating,velvetleaf; [1],0
same,Velvetleaf plant response rating,velvetleaf; [2],0
same,"Plant response rating, Velvetleaf",velvetleaf; [3],0
same,"Plant response rating, Velvetleaf",velvetleaf; [4],0
same,Velvetleaf plant response rating,velvetleaf; [5],0
same,Velvetleaf plant response rating,velvetleaf; [6],0
same,"Plant response rating, Velvetleaf",velvetleaf; [8],3
same,Crabgrass plant response rating,crabgrass; [1],5
same,Crabgrass plant response rating,crabgrass; [2],9
same,"Plant response rating, Crabgrass",crabgrass; [3],4
same,"Plant response rating, Crabgrass",crabgrass; [4],8
same,Crabgrass plant response rating,crabgrass; [5],8
same,Crabgrass plant response rating,crabgrass; [6],0
same,Crabgrass plant response rating,crabgrass; [7],8
same,"Plant response rating, Crabgrass",crabgrass; [8],9
same,Nutsedge plant response rating,purple nutsedge; [1],0
same,Nutsedge plant response rating,purple nutsedge; [2],0
same,Nutsedge plant response rating,purple nutsedge; [6],0
same,Nutsedge plant response rating,purple nutsedge; [7],0
same,Soybean plant response rating,soybean; [1],0
same,Soybean plant response rating,soybean; [2],2
same,"Plant response rating, Soybean",soybean; [3],0
same,"Plant response rating, Soybean",soybean; [4],0
same,Soybean plant response rating,soybean; [5],0
same,Soybean plant response rating,soybean; [6],0
same,"Plant response rating, Soybean",soybean; [8],0
same,Corn plant response rating,corn; [1],0
same,Corn plant response rating,corn; [2],0
same,"Plant response rating, Corn",corn; [3],0
same,"Plant response rating, Corn",corn; [4],0
same,Corn plant response rating,corn; [5],5
same,Corn plant response rating,corn; [6],0
same,Corn plant response rating,corn; [7],0
same,"Plant response rating, Corn",corn; [8],7
same,Ducksalad plant response rating,duck salad; [2],0
same,Ducksalad plant response rating,duck salad; [9],0
same,Ducksalad plant response rating,duck salad; [10],0
same,Ducksalad plant response rating,duck salad; [11],0
same,Rice plant response rating,rice; [2],0
same,Rice plant response rating,rice; [9],0
same,Rice plant response rating,rice; [10],0
same,Rice plant response rating,rice; [11],0
same,Barnyardgrass plant response rating,bamyardgrass; [2],0
same,Barnyardgrass plant response rating,bamyardgrass; [9],0
same,Barnyardgrass plant response rating,bamyardgrass; [10],0
same,Barnyardgrass plant response rating,bamyardgrass; [11],0
CC(C)N(C(=O)n1oc(=O)n(-c2ccc(OC(F)(F)F)cc2)c1=O)C1=CCOCC1 [Compound 13],Cocklebur plant response rating,cocklebur; [1],0
same,Cocklebur plant response rating,cocklebur; [2],0
same,"Plant response rating, Cocklebur",cocklebur; [3],0
same,"Plant response rating, Cocklebur",cocklebur; [4],0
same,Cocklebur plant response rating,cocklebur; [5],0
same,Cocklebur plant response rating,cocklebur; [6],0
same,Cocklebur plant response rating,cocklebur; [7],0
same,Wheat plant response rating,wheat; [1],0
same,Wheat plant response rating,wheat; [2],0
same,"Plant response rating, Wheat",wheat; [3],0
same,"Plant response rating, Wheat",wheat; [4],0
same,Wheat plant response rating,wheat; [5],0
same,Wheat plant response rating,wheat; [6],0
same,"Plant response rating, Wheat",wheat; [8],0
same,Redroot pigweed plant response rating,pigweed; [1],0
same,Redroot pigweed plant response rating,pigweed; [2],0
same,"Plant response rating, Redroot pigweed",pigweed; [3],0
same,"Plant response rating, Redroot pigweed",pigweed; [4],0
same,Redroot pigweed plant response rating,pigweed; [5],0
same,Redroot pigweed plant response rating,pigweed; [6],0
same,Redroot pigweed plant response rating,pigweed; [7],0
same,"Plant response rating, Redroot pigweed",pigweed; [8],3
same,Rape plant response rating,rape; [1],0
same,Rape plant response rating,rape; [2],1
same,"Plant response rating, Rape",rape; [3],0
same,"Plant response rating, Rape",rape; [4],0
same,Rape plant response rating,rape; [5],0
same,Rape plant response rating,rape; [6],0
same,Rape plant response rating,rape; [7],1
same,"Plant response rating, Rape",rape; [8],0
same,Sugarbeets plant response rating,sugar beet; [1],0
same,Sugarbeets plant response rating,sugar beet; [2],0
same,"Plant response rating, Sugarbeets",sugar beet; [3],0
same,"Plant response rating, Sugarbeets",sugar beet; [4],0
same,Sugarbeets plant response rating,sugar beet; [5],0
same,Sugarbeets plant response rating,sugar beet; [6],0
same,"Plant response rating, Sugarbeets",sugar beet; [8],0
same,Giant foxtail plant response rating,giant foxtail; [1],2
same,Giant foxtail plant response rating,giant foxtail; [2],7
same,"Plant response rating, Giant foxtail",giant foxtail; [3],3
same,"Plant response rating, Giant foxtail",giant foxtail; [4],8
same,Giant foxtail plant response rating,giant foxtail; [5],8
same,Giant foxtail plant response rating,giant foxtail; [6],0
same,Giant foxtail plant response rating,giant foxtail; [7],7
same,"Plant response rating, Giant foxtail",giant foxtail; [8],8
same,Morningglory plant response rating,morningglory; [1],0
same,Morningglory plant response rating,morningglory; [2],0
same,"Plant response rating, Morningglory",morningglory; [3],0
same,"Plant response rating, Morningglory",morningglory; [4],0
same,Morningglory plant response rating,morningglory; [5],0
same,Morningglory plant response rating,morningglory; [6],0
same,Morningglory plant response rating,morningglory; [7],0
same,"Plant response rating, Morningglory",morningglory; [8],2
same,Wild oats plant response rating,wild oat; [1],0
same,Wild oats plant response rating,wild oat; [2],2
same,"Plant response rating, Wild oats",wild oat; [3],0
same,"Plant response rating, Wild oats",wild oat; [4],0
same,Wild oats plant response rating,wild oat; [5],2
same,Wild oats plant response rating,wild oat; [6],0
same,"Plant response rating, Wild oats",wild oat; [8],7
same,Velvetleaf plant response rating,velvetleaf; [1],0
same,Velvetleaf plant response rating,velvetleaf; [2],0
same,"Plant response rating, Velvetleaf",velvetleaf; [3],0
same,"Plant response rating, Velvetleaf",velvetleaf; [4],0
same,Velvetleaf plant response rating,velvetleaf; [5],0
same,Velvetleaf plant response rating,velvetleaf; [6],0
same,"Plant response rating, Velvetleaf",velvetleaf; [8],2
same,Crabgrass plant response rating,crabgrass; [1],5
same,Crabgrass plant response rating,crabgrass; [2],9
same,"Plant response rating, Crabgrass",crabgrass; [3],2
same,"Plant response rating, Crabgrass",crabgrass; [4],5
same,Crabgrass plant response rating,crabgrass; [5],5
same,Crabgrass plant response rating,crabgrass; [6],1
same,Crabgrass plant response rating,crabgrass; [7],9
same,"Plant response rating, Crabgrass",crabgrass; [8],8
same,Nutsedge plant response rating,purple nutsedge; [1],0
same,Nutsedge plant response rating,purple nutsedge; [2],0
same,"Plant response rating, Nutsedge",purple nutsedge; [3],0
same,"Plant response rating, Nutsedge",purple nutsedge; [4],0
same,Nutsedge plant response rating,purple nutsedge; [5],0
same,Nutsedge plant response rating,purple nutsedge; [6],0
same,Nutsedge plant response rating,purple nutsedge; [7],0
same,"Plant response rating, Nutsedge",purple nutsedge; [8],0
same,Soybean plant response rating,soybean; [1],2
same,Soybean plant response rating,soybean; [2],3
same,"Plant response rating, Soybean",soybean; [3],0
same,"Plant response rating, Soybean",soybean; [4],0
same,Soybean plant response rating,soybean; [5],0
same,Soybean plant response rating,soybean; [6],1
same,"Plant response rating, Soybean",soybean; [8],0
same,Corn plant response rating,corn; [1],0
same,Corn plant response rating,corn; [2],0
same,"Plant response rating, Corn",corn; [3],0
same,"Plant response rating, Corn",corn; [4],0
same,Corn plant response rating,corn; [5],0
same,Corn plant response rating,corn; [6],0
same,Corn plant response rating,corn; [7],0
same,"Plant response rating, Corn",corn; [8],0
same,Ducksalad plant response rating,duck salad; [2],0
same,Ducksalad plant response rating,duck salad; [9],0
same,Ducksalad plant response rating,duck salad; [10],0
same,Ducksalad plant response rating,duck salad; [11],0
same,Rice plant response rating,rice; [2],0
same,Rice plant response rating,rice; [9],0
same,Rice plant response rating,rice; [10],0
same,Rice plant response rating,rice; [11],0
same,Barnyardgrass plant response rating,bamyardgrass; [2],0
same,Barnyardgrass plant response rating,bamyardgrass; [9],0
same,Barnyardgrass plant response rating,bamyardgrass; [10],0
same,Barnyardgrass plant response rating,bamyardgrass; [11],0
